# Data: patent publication US20100183669A1, “Mannose immunogens for HIV-1” (University of Oxford, priority 2005, published 2010)
# Experiments:
# [1] = system: ER- and Golgi-resident class I α-mannosidases; conditions: relative to DMJ; cited from earlier work
# 2G12 [2] = experiment: 2G12 binding ELISA of self glycoproteins CD48 and RPTPmu expressed in HEK293T cells with kifunensine; conditions: glycoproteins expressed in HEK293T cells with 5 μM kifunensine, FIG. 4
# Experimental: The aim of this study is to generate ‘self’ glycoproteins bearing oligomannose glycans which bind a 2G12 antibody and consequently display antigenic cross-reactivity with the HIV gp120. Two target glycoproteins, CD48 and Receptor Protein Tyrosine Phosphates mu (RPTPmu) were expressed in HEK293T cells in the presence of the mannosidase inhibitor kifunensine at 5 μM concentration. To verify that the mannosidase inhibitor was effective in producing glycoprotein containing oligomannose glycans, the glycans were released by digestion with protein N-glycanase F (PNGase F) and were then analysed by high-performance liquid chromatography (HPLC) and matrix assisted laser desorption/ionisation mass spectrometry (MALDI-MS).
# The resulting glycoproteins containing oligomannose-type N-linked glycans were tested for 2G12 binding by ELISA (FIG. 4). Particularly, 15.6 μg of CD48, 2 μg, 1 μg and 0.4 μg of RPTPmu were plated and 1 μg of non-kifunensine treated IgG was plated as a negative control.
# 2G12 [3] = experiment: Double antibody (b12/2G12) ELISA of gp120 captured with anti-gp120 antibody D7324; assay type: binding; conditions: gp120 produced with 5 μM kifunensine compared with double antibody ELISA of untreated gp120, FIG. 1 panel B
# Text: Binding of gp120, and measurement of b12/2G12 was again determined by phosphatase-conjugated anti-IgG secondary antibody.
# (§1) BSA (x) was used in these experiments as a negative control.
# monoclonal antibody 2G12 = experiment: 2G12 sandwich ELISA of gp120 from CHO cells grown with or without kifunensine; assay type: binding; conditions: for binding to the monoclonal antibody 2G12 in ELISA: gp120 produced in CHO cells in the presence of kifunensine, compared with absence
# Experimental: To investigate the role of mannosidase inhibition, by kifunensine, on the formation of the 2G12 epitope, Chinese Hamster Ovary (CHO) cells, transfected with EE6HCMV gp120GS, secreting recombinant HIV-IIIB gp120, were cultured in CB2 DMEM Base culture medium supplemented with foetal calf serum (10%), penicillin (50 U/ml) and streptomycin (50 ^1g/ml). All reagents were obtained from Gibco Ltd, Uxbridge, UK. High expression of gp120 was maintained by the addition of methionine sulphoximine (200 nM). Cells were grown in the presence and absence kifunensine (see FIG. 1A, 1B).
# Glycoproteins were immobilized on plastic protein-binding plates. For the first experiment (FIG. 1A) 2G12 (5 ug/ml) was coated onto plate, left overnight at 4° C. Plates were then blocked with Bovine Serum albumin (3% w/v) for one hour. Subsequently, supernatant from gp120IIIB expressing CHO cells (with or without kifunensine) was added for one hour, at room temperature. Plates were then washed 3 times in PBS. 2G12 (titration from 10 yg/ml) was then added. After washing 2g12 binding was determined by phosphatase-conjugated anti-IgG secondary antibody, a final wash step and then phosphatase substrate measurement (p-nitrophenylphosphate, absorbance at 405 nm).
# as §1
molecule,measurement,setting,value
O=C1N[C@@H]2[C@@H](O)[C@@H](O)[C@H](O)[C@@H](CO)N2C1=O [kifunensine],"concentration to effect mannosidase inhibition, lower than DMJ",[1],1000 fold
"CD48: self glycoprotein expressed in HEK293T cells in the presence of 5 μM kifunensine, bearing oligomannose glycans",2G12 binding by ELISA,2G12 [2],can bind to 2G12
"RPTPmu: self glycoprotein expressed in HEK293T cells in the presence of 5 μM kifunensine, bearing oligomannose glycans",2G12 binding by ELISA,2G12 [2],can bind to 2G12
kifunensine treated gp120: HIV-1IIIB gp120 glycoprotein produced in a CHO stable cell line in the presence of kifunensine,distinct epitopes for 2G12,2G12 [3],two distinct epitopes
same,number of 2G12 molecules able to bind to a single gp120 molecule,monoclonal antibody 2G12; gp120 expressed in the presence of kifunensine,at least two
same,binding to the monoclonal antibody 2G12 in ELISA,monoclonal antibody 2G12; expressed in the presence of kifunensine,dramatically enhanced
same,binding to the monoclonal antibody 2G12 in ELISA,monoclonal antibody 2G12; produced in the presence of kifunensine,higher binding
same,additional 2G12 binding sites on each molecule of gp120,"monoclonal antibody 2G12; gp120 produced in the presence of kifunensine, two 2G12 ELISA binding assays",at least one additional 2G12 binding site
same,proportion of gp120 molecules able to simultaneously bind two or more 2G12 antibody molecules,"monoclonal antibody 2G12; sandwich ELISA, 0-5 μM kifunensine, FIG. 1 panel A",a higher proportion
